{"source": "patent US10745408B2", "about": "“Biologically active taxane analogs and methods of treatment by oral administration” (Tapestry Pharmaceuticals, Inc., priority 2007, dated 2020)", "key": {"[1]": {"experiment": "Central nervous system (CNS) safety study in rats", "assay_type": "in vivo, male Sprague Dawley rats", "method": "Toxicology. Central Nervous System (CNS) Safety Study in Rats:\nThis study was conducted at ClinTrials BioResearch (CTBR, Montreal, Quebec, Canada) as a GLP study.\nAll animals were observed twice daily for signs of ill health or reaction to treatment, except on day of arrival and necropsy. A Functional Observation Battery (FOB) assessment, along with grip strength, hind limb splay and body temperature measurements were performed for all animals once pre-dose and at approximately 15 minutes, 1 hour, 4 hours, 8 hours and 24 hours post-dose. After the last observation, all animals were euthanized without further examination."}, "SKNAS": {"tested_on": "SKNAS", "experiment": "MTS proliferation assay, neuroblastoma SKNAS", "assay_type": "cell-based", "conditions": "Homo sapiens, SK-N-AS", "method": "(§1) MTS Proliferation Assay (Promega)\n(§2) Day 1: Cells were plated in appropriate growth medium at 5×10^3 per well in 100 ul in 96 well tissue culture plates, Falcon, one for each drug to be tested. Col 1 was blank; it contained no cells, just medium. The plates were incubated overnight at 37° C., 5% CO2 to allow attachment.\n(§3) Day 2: Added 120 ul growth medium in wells of 96-well “dilution plates” (one for each drug) and let sit in 37° C. incubator for about 1 hr.\n(§4) Thawed DMSO drug stocks (usually at 10 mM). Each drug was diluted 6 ul into a tube with 3 ml growth medium, to 20 μM.\n(§5) Aspirated medium from col 12 of a dilution plate; added 200-300 ul of 20 uM drug to wells of col 12. Made serial dilution down this 96-well plate: for a […] dilution pattern, moved 60 ul from col 12 to col 11, mixed 4-5 times (using 8 place multi-pipettor), moved 60 ul to col 10, etc. stopping at col 3.\n(§6) Moved 100 ul of medium+drug from dilution plate to a cell plate, i.e. col 1 from drug plate (blank=no cells) to col 1 of cell plate, etc. up to col 12. Col 2 contained cells with no drug. […]\n(§7) Day 4 or 5: Terminated the assay 48 to 72 hrs after drug addition. […] When the color turned dark in control wells (col 2), and was still light in col 12, the absorbance at 490 nm was read on a plate reader; the results were used to calculate IC50."}, "[2]": {"tested_on": "patients with advanced neoplasms", "experiment": "Phase 1 Study S-(1)-01 safety, tolerability and anti-neoplastic activity", "assay_type": "in vivo, human", "source_text": "(§8) Both trials have enrolled patients with advanced solid tumors, non-Hodgkin's lymphoma or Hodgkin's lymphoma that have recurred or progressed following at least standard therapy; patients with malignancies for which there is no standard therapy; patients who are not candidates for standard therapy; or patients who have chosen not to pursue standard therapy. […] Study S-(1)-01 is currently being conducted in the United States. […] Study S-(1)-02 is currently being conducted in the United States and in Israel.\nTreatment cohorts consisted of 3 pts and were expanded to 6 pts in the face of dose-limiting toxicity (DLT); pts could remain on study until the development of progressive disease or an intolerable adverse event. DLT was defined as Gr 4 heme toxicity lasting 7 days; febrile neutropenia, Gr 3 thrombocytopenia with bleeding, Gr 3 elevation of transaminases lasting 7 days or any other Gr 3/4 toxicity other than nausea or vomiting."}, "[3]": {"experiment": "S-(1) pharmacokinetics in mouse, plasma and brain levels after single IV dose", "assay_type": "in vivo, CD-1 mice", "conditions": "single IV 20 mg/kg; for AUC(0-inf) / AUC(0-t) / Cmax / MRT: CD-1, mouse", "method": "S-(1) Pharmacokinetic Data in Mouse Model:\nThe formulated drug was administered as a single IV bolus via tail vein injection.\nSample Collection timing: Terminal blood (plasma) and brain specimens were collected at 9 times post-dose, with 4 mice per sample time. Sample collection times: 5, 15 min., 2, 8, 24, 32, 48, 72 and 96 hr post-dose (4 mice per sample time).\nBlood collection: A terminal blood sample was collected from each mouse via cardiac puncture. The whole blood was collected on wet ice, spun down immediately (at 4° C.), and plasma stored frozen at −20° C. until analysis. The anticoagulant used was K2EDTA. Brain Sample Collection: Whole brains were removed by dissection. Brains were collected on wet ice, weighed, and stored at −20° C."}, "HT29": {"tested_on": "HT29", "experiment": "MTS proliferation assay, colon HT29", "assay_type": "cell-based", "conditions": "Homo sapiens, HT-29", "method": "as §1, §2, §3, §4, §5, §6, §7"}, "[4]": {"experiment": "Phase 1 Study S-(1)-02 plasma pharmacokinetics (every 21 days)", "assay_type": "in vivo, human", "conditions": "for half-life / AUC(0-t): human, plasma; for AUC(0-t): read-out: AUC0-24", "source_text": "as §8\nPlasma pharmacokinetics of S-(1) were assessed following the first dose of S-(1) in both studies. Plasma samples were analyzed for S-(1) using a validated LC/MS-MS method."}, "[5]": {"experiment": "Crossing of rat blood-brain barrier (FIG. 1)", "assay_type": "in vivo"}, "[6]": {"experiment": "Human tumor xenografts in nude mice (efficacy and MTD studies)", "assay_type": "in vivo", "conditions": "mouse, in vivo, po; nude mice, from efficacy and MTD studies; read-out: apparent oral bioavailability"}, "human tumor xenografts": {"tested_on": "human tumor xenografts", "experiment": "Human tumor xenografts in nude mice (efficacy and MTD studies)", "assay_type": "in vivo"}, "MESSA": {"tested_on": "MESSA", "experiment": "MTS proliferation assay, uterine MESSA", "assay_type": "cell-based", "conditions": "Homo sapiens, MES-SA", "method": "as §1, §2, §3, §4, §5, §6, §7"}, "[7]": {"conditions": "56 mg/m^2 i.v., first dose, 15:85 Cremophor EL-P/ethanol formulation"}, "[8]": {"conditions": "84 mg/m^2 i.v., first dose, 15:85 Cremophor EL-P/ethanol formulation"}, "[9]": {"conditions": "126 mg/m^2 i.v., first dose, 15:85 Cremophor EL-P/ethanol formulation"}, "[10]": {"conditions": "185 mg/m^2 i.v., first dose, 15:85 Cremophor EL-P/ethanol formulation"}}, "note": "Entries after “also recorded” stand apart in the source; their conditions may differ. Where two headings read alike, the source gives them in different places."}
{"compound": "C=C[C@H]1O[C@H]2C[C@H]3OC[C@@]3(OC(C)=O)[C@H]3[C@H](OC(=O)c4ccccc4)[C@]4(C(C)(C)O)CC(OC(=O)[C@H](O)C(CC(C)C)NC(=O)OC(C)(C)C)C(C)=C4[C@H](OC(C)=O)[C@H](O1)[C@]23C", "note": "(stereo partly drawn) [S-(1)]", "values": [{"measurement": "deaths or treatment-related clinical signs", "setting": "[1]; single intravenous 6.25, 12.5 or 25 mg/kg", "value": "no deaths or treatment-related clinical signs"}, {"measurement": "biological effect on central nervous system (FOB, grip strength, hind limb splay, body temperature)", "setting": "[1]; single intravenous 6.25, 12.5 or 25 mg/kg, 15 minutes, 1, 4, 8 and 24 hours post-dose", "value": "no biological effects"}, {"measurement": "no adverse effect level", "setting": "[1]; single intravenous injection", "value": 25, "unit": "mg/kg"}, {"measurement": "IC50", "setting": "SKNAS", "value": 11, "unit": "nM"}, {"measurement": "Dose limiting toxicity", "setting": "[2]; 185 mg/m^2, weekly x3, 28-day cycle", "value": "Grade 3 sensory neuropathy; also recorded: Grade 3 peripheral neuropathy"}, {"measurement": "Drug related adverse events", "setting": "[2]; 7-185 mg/m^2 weekly x3", "value": "nausea, vomiting, diarrhea, fatigue, anorexia, rash, anemia and peripheral neuropathy"}, {"measurement": "anti-neoplastic activity", "setting": "[2]; patient with pancreatic cancer", "value": "Anti-neoplastic activity was seen"}, {"measurement": "dose that can be safely administered", "setting": "[2]; weekly×3, heavily pre-treated patients", "value": "up to 185 mg/m^2"}, {"measurement": "AUC(0-inf)", "setting": "[3]; Brain", "value": 88700, "unit": "ng·h/mL"}, {"measurement": "AUC(0-t)", "setting": "[3]; Brain", "value": 65000, "unit": "ng·h/mL"}, {"measurement": "Cmax", "setting": "[3]; Brain", "value": 3730, "unit": "ng/mL"}, {"measurement": "MRT", "setting": "[3]; Brain", "value": 42.5, "unit": "h"}, {"measurement": "AUC(0-inf)", "setting": "[3]; Plasma", "value": 17000, "unit": "ng·h/mL"}, {"measurement": "AUC(0-t)", "setting": "[3]; Plasma", "value": 16900, "unit": "ng·h/mL"}, {"measurement": "Cmax", "setting": "[3]; Plasma", "value": 1550, "unit": "ng/mL"}, {"measurement": "MRT", "setting": "[3]; Plasma", "value": 17.6, "unit": "h"}, {"measurement": "blood-brain barrier passage", "setting": "[3]; mouse model", "value": "not impeded by the blood-brain barrier"}, {"measurement": "IC50", "setting": "HT29", "value": 0.006, "unit": "nM"}, {"measurement": "Cl", "setting": "[4]; [7]", "value": "18.9 ± 9.53", "unit": "L/hr/m^2"}, {"measurement": "Vss", "setting": "[4]; [7]", "value": "232 ± 93.6", "unit": "L/m^2"}, {"measurement": "Cl", "setting": "[4]; [8]", "value": 15.4, "unit": "L/hr/m^2"}, {"measurement": "Vss", "setting": "[4]; [8]", "value": 300, "unit": "L/m^2"}, {"measurement": "Cl", "setting": "[4]; [9]", "value": "22.1 ± 11.2", "unit": "L/hr/m^2"}, {"measurement": "Vss", "setting": "[4]; [9]", "value": "166 ± 105", "unit": "L/m^2"}, {"measurement": "t1/2", "setting": "[4]; [9]", "value": "6.27 ± 3.64", "unit": "h"}, {"measurement": "Cl", "setting": "[4]; [10]", "value": "24.7 ± 12.2", "unit": "L/hr/m^2"}, {"measurement": "Vss", "setting": "[4]; [10]", "value": "215 ± 116", "unit": "L/m^2"}, {"measurement": "half-life", "setting": "[4]; intravenous, S-(1)-02 study, all dose groups, read-out: Plasma t1/2 values, range over dose groups", "value": "3.43 to 8.96", "unit": "h"}, {"measurement": "AUC(0-t)", "setting": "[4]; iv, 56 mg/m2, 56 mg/m^2 i.v., first dose, 15:85 Cremophor EL-P/ethanol formulation", "value": "2530 ± 847", "unit": "ng·h/mL"}, {"measurement": "half-life", "setting": "[4]; iv, 56 mg/m2, 56 mg/m^2 i.v., first dose, 15:85 Cremophor EL-P/ethanol formulation, read-out: t1/2 (converted)", "value": "8.96 ± 7.09", "unit": "h"}, {"measurement": "AUC(0-t)", "setting": "[4]; iv, 84 mg/m2, 84 mg/m^2 i.v., first dose, 15:85 Cremophor EL-P/ethanol formulation", "value": 3710, "unit": "ng·h/mL"}, {"measurement": "AUC(0-t)", "setting": "[4]; iv, 126 mg/m2, 126 mg/m^2 i.v., first dose, 15:85 Cremophor EL-P/ethanol formulation", "value": "6110 ± 3030", "unit": "ng·h/mL"}, {"measurement": "half-life", "setting": "[4]; iv, 126 mg/m2, 126 mg/m^2 i.v., first dose, 15:85 Cremophor EL-P/ethanol formulation, read-out: t1/2 (converted)", "value": "10.6 ± 7.1", "unit": "h"}, {"measurement": "AUC(0-t)", "setting": "[4]; iv, 185 mg/m2, 185 mg/m^2 i.v., first dose, 15:85 Cremophor EL-P/ethanol formulation", "value": "7260 ± 2620", "unit": "ng·h/mL"}, {"measurement": "half-life", "setting": "[4]; iv, 185 mg/m2, 185 mg/m^2 i.v., first dose, 15:85 Cremophor EL-P/ethanol formulation, read-out: t1/2 (converted)", "value": "3.43 ± 7.31", "unit": "h"}, {"measurement": "crossing of blood-brain barrier", "setting": "[5]", "value": "crosses rat blood-brain barrier"}, {"measurement": "bioavailability", "setting": "[6]", "value": "40 to 80", "unit": "%"}, {"measurement": "efficacy in mouse xenografts", "setting": "human tumor xenografts; dosed either oral or iv", "value": "shows efficacy"}, {"measurement": "antitumor activity against multiple human tumor xenografts", "setting": "human tumor xenografts; including xenografts that expressed mdr-1 and were resistant to other taxanes", "value": "demonstrated antitumor activity; also recorded: suppressed the growth"}, {"measurement": "IC50", "setting": "MESSA", "value": 2.9, "unit": "nM"}]}
